Source: the NIST ThermoML archive (doi:10.1021/je034255e)
Numbers after ± are expanded uncertainties.

How the values were obtained:
[1] = Liquid; for mass density: 101.33 kPa
[2] = excess molar enthalpy (molar enthalpy of mixing); xn = mol fraction of the nth substance listed; conditions: 413.15 K, 1620 kPa, Liquid, Flow calorimetry

CCC(N)=O [propanamide]
mass density ([1]; 355.65 K): 963.2 ± 0.3 kg/m3 | mass density ([1]; 358.15 K): 961.2 ± 0.3 kg/m3 | mass density ([1]; 363.15 K): 957.2 ± 0.3 kg/m3 | vapor or sublimation pressure ([1]; 375.45 K): 0.97 ± 0.08 kPa | vapor or sublimation pressure ([1]; 384.15 K): 1.53 ± 0.08 kPa | vapor or sublimation pressure ([1]; 394.15 K): 2.52 ± 0.08 kPa | vapor or sublimation pressure ([1]; 403.65 K): 4.02 ± 0.08 kPa | vapor or sublimation pressure ([1]; 414.05 K): 6.4 ± 0.09 kPa | vapor or sublimation pressure ([1]; 427.65 K): 11.22 ± 0.09 kPa | vapor or sublimation pressure ([1]; 443.85 K): 21.16 ± 0.11 kPa | vapor or sublimation pressure ([1]; 455.55 K): 31.04 ± 0.12 kPa | vapor or sublimation pressure ([1]; 462.95 K): 40.87 ± 0.14 kPa | vapor or sublimation pressure ([1]; 469.05 K): 50.69 ± 0.15 kPa | vapor or sublimation pressure ([1]; 475.85 K): 60.86 ± 0.16 kPa

CCC(N)=O [propanamide] + CCCCCCCCCCC
excess molar enthalpy ([2]; x2 = 0.0092): 0.0332 ± 0.0012 kcal/mol | excess molar enthalpy ([2]; x2 = 0.0284): 0.0576 ± 0.0012 kcal/mol | excess molar enthalpy ([2]; x2 = 0.049): 0.0607 ± 0.0012 kcal/mol | excess molar enthalpy ([2]; x2 = 0.1074): 0.0669 ± 0.0012 kcal/mol | excess molar enthalpy ([2]; x2 = 0.7646): 0.133 ± 0.00143 kcal/mol | excess molar enthalpy ([2]; x2 = 0.9337): 0.15 ± 0.00167 kcal/mol | excess molar enthalpy ([2]; x2 = 0.9661): 0.154 ± 0.00167 kcal/mol
